# Data published in US20050277699A1, “Method of decreasing sebum production and pore size” (Unilever Home & Personal Care USA, Division Of Conopco, Inc., priority 2004, published 2005).
# Test system: human sebocytes
# Experiment: Sebocyte assay: 14C-acetate label remaining in cultured sebocytes (sebum suppression)
# Format: cell-based
# Protocol: Secondary cultures of human sebocytes obtained from an adult […] were grown in 96-well tissue culture plates (Packard) until three days post-confluence. Sebocyte growth medium consisted of Clonetics Keratinocyte Basal Medium (KBM) supplemented with 14 ug/ml bovine pituitary extract, 0.4 ug/ml hydrocortisone, 5 ug/ml insulin, 10 ng/ml epidermal growth factor, 1.2×10^−10 M cholera toxin, 100 units/ml penicillin, and 100 ug/ml streptomycin. All cultures were incubated at 37° C. in the presence of 7.5% CO2. Medium was changed three times per week. On the day of experimentation, the growth medium was removed and the sebocytes washed three times with sterile Dulbecco's Modified Eagle Medium (DMEM; phenol red free). Fresh DMEM (200-microliters per well) was added to each sample (5 replicates) with 5-microliters of test agent (DL-α-Difluoromethylornithine hydrochloride) solubilized in water. Controls consisted of addition of water alone. Each plate was returned to the incubator for 20-hours followed by the addition of ^14C-acetate buffer (5 mM final concentration, 56 mCi/mmol specific activity). Sebocytes were returned to the incubator for 4-hours afterwhich each culture was rinsed 3-times with phosphate buffered saline to remove unbound label. Radioactive label remaining in the sebocytes was determined using a Packard TopCount scintillation counter. Statistical significance (p value) was calculated using student's t-test. Phenol Red, a known sebum suppressive agent, was employed as a positive control. […] The experiment was repeated as above with modifications. On the day of experimentation, the growth medium was removed and the sebocytes washed three times with sterile Dulbecco's Modified Eagle Medium (DMEM; phenol red free). Fresh DMEM was added to each sample (3 replicates) with 5-microliters of test agent (DL-a-Difluoromethylornithine hydrochloride) solubilized in water. Controls consisted of addition of water alone. Each plate was returned to the incubator for 68-hours followed by the addition of ^14C-acetate buffer (5 mM final concentration, 56 mCi/mmol specific activity). Sebocytes were returned to the incubator for 4-hours, followed by rinsing each culture 3-times with phosphate buffered saline to remove unbound label. Radioactive label remaining in the sebocytes was determined using a Packard TopCount scintillation counter. Statistical significance (p value) was calculated using student's t-test.
structure (smiles),measurement,setting,value
"Cl.NCCCC(N)(C(=O)O)C(F)F (racemic) [DFMO, DL-α-Difluoromethylornithine hydrochloride]",% of Control (radioactive label remaining in the sebocytes),"10 uM, 20-hours incubation then 4-hours 14C-acetate (24-hours), 5 replicates",95.5%
same,% of Control (radioactive label remaining in the sebocytes),"10 uM, 68-hours incubation then 4-hours 14C-acetate, 3 replicates",59.5%
same,% of Control (radioactive label remaining in the sebocytes),"1000 uM, 20-hours incubation then 4-hours 14C-acetate (24-hours), 5 replicates",88.0%
same,% of Control (radioactive label remaining in the sebocytes),"1000 uM, 68-hours incubation then 4-hours 14C-acetate, 3 replicates",41.4%
same,sebum suppressive activity (in words),after prolonged incubation (68-hours + 4-hours),enhanced sebum suppressive activity
O=S1(=O)OC(c2ccc(O)cc2)(c2ccc(O)cc2)c2ccccc21 [Phenol Red],activity at 28.2 µM,"Homo sapiens, 28.2 uM, 20-hours incubation then 4-hours 14C-acetate (24-hours), positive control, read-out: % of Control (radioactive label remaining in the sebocytes)",22.1%
same,activity at 282 µM,"Homo sapiens, 282 uM, 20-hours incubation then 4-hours 14C-acetate (24-hours), positive control, read-out: % of Control (radioactive label remaining in the sebocytes)",34.5%
